Data taken from US20240000741A1, “ALL-TRANS RETINOIC ACID ENHANCES RADIOTHERAPY AND OVERCOMES IMMUNE SUPPRESSION FOR CANCER THERAPY” (The University of Chicago, priority 2022, published 2024).

What was measured:
MC38 cells = test: Direct cytotoxic/radiosensitizing effect of RA on cultured tumor cells; type: cell-based, mouse; conditions: RA 0 nM to 2000 nM after IR 0 Gy to 15 Gy, three days
Protocol: To determine whether RA has direct cytotoxic and/or radiosensitizing effects on tumor cells, MC38 cells were cultured with RA (0 nM to 2000 nM) after IR (0 Gy to 15 Gy) for three days. […] Since both IR and RA regulate immune responses, studies were conducted to examine how the combination treatment changes the tumor immune environment. Using a multiplex assay, the level of chemokines and cytokines in tumors three days after treatment was determined. Following IR+RA treatment, increased levels of CCL2, CCL3, CCL4 and CCL5 (by 2-fold to 3-fold compared to levels in any single treatment), which are involved in monocyte recruitment, were observed. GM-CSF, a critical cytokine for DC generation, increased by more than 5-fold in whole tumor homogenates.

immune cells in tumors = test: Flow cytometric analysis of immune cells in treated MC38 tumors and draining lymph nodes; type: in vivo, mouse
Text: Single cell suspensions were obtained as previously described (40). Cells were blocked with anti-Fc receptor (2.4 G2, BioXCell, Lebanon, New Hampshire, United States of America) and stained for live/dead with Zombie UV, followed staining using antibodies against CD45, CD4, CD8, NK1.1, CD11b, CD11c, Ly6C, Ly6G, F4/80, CD44, CD62L.
The following antibodies were used for high-dimensional flow analysis: BV605-CX3CR, BV650-XCR1, PB-CD11 b, BV510-CD24, BV711-CD64, BV785-F4/80, AF532-CD45, PerCP-Cy5.5-1-A/I-E, PerCP-eFluor710-Flt3, PE-Cy7-CD11c, FITC-Ly6C, PE-iNOS, PE-Dazzle 594-CD103, APC-TNF, Alexa Fluor 700-CD206, and APC-Cy7-SIRPα. For IFN-γ and GrzB (515407) staining, cells were cultured with PMA/ionomycin and brefeldin A (423303, BioLegend, San Diego, California, United States of America) for 6 hours followed by intracellular staining using BD fix/perm intracellular staining kit (554714, BD Biosciences, Franklin Lakes, New Jersey, United States of America). For TNF-α staining, cells were stimulated by PMA/ionomycin and brefeldin A for 4 hours followed by intracellular staining. Foxp3 (17-5773-82, Thermo Fisher Scientific, Waltham, Massachusetts, United States of America) Ki67 (Clone 16-A8, BioLegend, San Diego, California, United States of America) and iNOS staining were performed following Foxp3 staining protocol (00-5523-00, Thermo Fisher Scientific, Waltham, Massachusetts, United States of America). Cells were analyzed on Fortessa flow cytometer (BD Biosciences, Franklin Lakes, New Jersey, United States of America) or on Aurora spectral cytometer (Cytek Biosciences, Fremont, California, United States of America. Data was analyzed with software sold under the tradename FLOWJO software (FlowJo LLC, Ashland, Oregon, United States of America).
Immune cells in tumors 4 days after the start of the treatment were examined. […] In CD11b+ subsets, Ly6C^+ cells, including CD11c^+Ly6C^+ cells, increased by 4-fold in tumors receiving the combination treatment. […] Next, the DC population was examined by analyzing high-dimensional flow cytometry data using traditional dendritic cell (DC) markers. Monocyte-derived dendritic cells (MoDCs) (Ly6C^+CD11 b^+CD11c^+ MHC-II^+CXCR3^+CD64^+SIRPα^+CD206^− cells), a low level of type two dendritic cells (DC2s) (Ly6C^−CD11b^+CD11c^+MHC-11^+CXCR3^+CD64^−SIRPα+CD206^−) and a very low level of type one dendritic cells (DC1s) (Ly6C^−CD11b^−CD11c^+MHC-11^+ CXCR1^+CD103^+CD64^−) were detected in IR and RA treated tumors.

[1] = tested on: MC38 colon carcinoma tumors; test: MC38 tumor growth after local ablative IR and/or RA; type: in vivo, mouse
[2] = tested on: Renca (a renal cancer tumor model); test: Renca tumor growth after IR and RA; type: in vivo, mouse; conditions: IR and RA combination compared with single treatments
Protocol: 1×10^6 MC38, B16/F1, Renca or CT26 cells were subcutaneously implanted into flanks of mice. Tumors were irradiated using a Phillips IR250 orthovoltage X-ray generator (Phillips, Amsterdam, the Netherlands) operating at 250 kV 15 mA. Subcutaneous local tumors were irradiated by shielding bodies with a cylindrical lead cover with only flank tumors exposed for radiation. ATRA (400 μg/mice/day) was administered by oral gavage for 10 days. For the two-tumor model, 1×10^6 and 0.7×10^6 MC38 cells were subcutaneously implanted into the right and left flank of mice respectively. […] Tumors were measured along two diameters (length and width) and depth twice weekly and volumes were calculated as length×width×depth/2. For CD8 and CD4 T cell depletion experiments, 200 μg antibodies were injected i.p. on day 0, 2, 5 and 8 after radiation. Anti-CD11b antibody was injected i.p. every two days starting 1 day before radiation. Anti-PD-L1 antibody was administered i.p. on day 0, 3, and 7 after radiation at 200 μg/mouse. Anti-IFN-γ was administered i.p. at 500 μg/mouse every 7 days. Anti-NK1.1 antibody was administered via i.p. at 25 μg/mouse every 3 days for 3 doses. Anti-GM-CSF antibody was given by i.p. injection at 250 μg/mouse every 2 days. FTY720 was delivered via gavage at 20 μg per dose every day for 7 days. […]

[3] = IR and RA treatment, high-dimensional flow cytometry
[4] = IR+RA vs single treatment, day 8
[5] = IR+RA, 4 days after start of treatment
[6] = after IR+RA combination treatment

CC1=C(/C=C/C(C)=C/C=C/C(C)=C/C(=O)O)C(C)(C)CCC1 [RA, all-trans retinoic acid]
tumor cell death in vitro (MC38 cells): no direct effects
expression of TNF-α in CD11b+ cells (immune cells in tumors; IR and RA combination treatment): Elevated expression
DC1 population (immune cells in tumors; [3]): not changed
DC2 population (immune cells in tumors; [3]): not changed
level of monocyte-derived dendritic cells (MoDCs) (immune cells in tumors; [3]): significantly induced
increase of CD8+ T cells infiltration in tumors (immune cells in tumors; IR+RA compared to IR treated tumors, eight days after treatment commencement, p<0.05): about 3 fold
ratio of CD8+ IFN-γ+ cells to Treg (immune cells in tumors; IR+RA compared to any single treatment, day 8): increased significantly
percentage of CD8+ IFN-γ+ cells in tumors and draining lymph nodes (immune cells in tumors; [4]): increased
percentage of CD8+GzmB+ cells in tumors and draining lymph nodes (immune cells in tumors; [4]): increased
CD11b+iNOS+ cells in tumors (immune cells in tumors; [5]): 11.1%
increase of Ly6C+ cells, including CD11c+Ly6C+ cells, in CD11b+ subsets (immune cells in tumors; [5]): 4 fold
percentage of CD4+ T cells in tumors (immune cells in tumors; IR+RA, day 4 post treatment): no significant change
percentage of CD8+ T cells in tumors (immune cells in tumors; IR+RA, day 4 post treatment): only a marginal change
percentage of Foxp3+ (Treg) cells in CD4+ T cells (immune cells in tumors; IR+RA, day 8): decreased
CD11b+CD11c+iNOS+TNF-α+ cells in tumors (immune cells in tumors; IR+RA, day 8, compared to any other treatment group): more
number of iNOS-producing Inf-MACs in tumors (immune cells in tumors; IR+RA, tumors in CCR2 KO hosts vs WT mice): significantly lower
CD11b+iNOS+ cells in tumors (immune cells in tumors; RA alone, 4 days after start of treatment): 1.8%
Inf-MAC induction by IR plus RA (immune cells in tumors; Rag1−/− hosts given IFN-γ−/− T cells compared to WT T cells): significantly abrogated
Ki67+ proliferation in DLN, CD8+ and CD4+ (immune cells in tumors; [6]): increased
percentage of naïve T cells (CD62L+CD44−) in DLN, CD8+ and CD4+ (immune cells in tumors; [6]): decreased
MC38 tumor growth ([1]; IR (15 Gy) plus RA 400 μg/dose oral gavage, compared to untreated controls or any single treatment): synergistically inhibited tumor growth
complete tumor regression ([1]; IR (15 Gy) plus RA combination treatment): 17 of 19
tumor inhibition ([1]; IR with RA administered by i.p. injection): Significant tumor inhibition effects
tumor inhibition ([1]; IR with RA at a lower dose (200 μg/dose) by oral gavage): Significant tumor inhibition effects
tumor inhibition ([1]; IR with slow RA-releasing pellets implanted subcutaneously): Significant tumor inhibition effects
MC38 tumor growth ([1]; IR+RA, tumors grown in Rag1−/− mice, in contrast to wild type mice): did not respond
survival ([1]; RA alone): ≤ 50 days
MC38 tumor growth ([1]; RA alone, 400 μg/dose oral gavage): no significant effect
MC38 tumor growth ([1]; higher dose of RA alone (800 μg/mouse/dose) for 7 days): inhibited
Renca tumor growth [2]: significant benefit
